Tests used:
[1] = test system: human umbilical vein endothelial cells (HUVEC); assay: Matrigel cord formation assay; assay type: cell-based; design: key: −: No Junctions; +: Few; ++: ˜50% of Control; +++: Same as Control; settings: 24 hours, compared to untreated controls
Method: In vitro Matrigel antiangiogenesis assays were implemented according to the Developmental Therapeutics Program NCI/NIH protocols known to one of skill in the art. Matrigel, a basement membrane matrix, was obtained from BD Biosciences. Growth inhibition and cord formation assays were Conducted using human umbilical vein endothelial cells obtained from GlycoTeCh. HUVEC cells were grown in EGM-2 medium.
An aliquot of sixty microliters was placed in each well of an ice-cold 96-well plate. The plates were then left for 15 minutes at room temperature, then incubated for 30 minutes at 37° C. to permit the matrigel to polymerize. Meanwhile, HUVEC cells were harvested and diluted to a concentration of 2×10^5 cells/ml. A solution of 100 μL containing the compounds to be tested was added next. After 24 hours incubation, pictures were taken for each concentration using an inverted Nikon Diaphot microscope and D100 digital camera. Drug effect was assessed, compared to untreated controls, by measuring the length of cords formed and number ofjunctions.

[2] = test system: Enterococcus faecalis; assay: reference broth microdilution susceptibility assay; assay type: cell-based; settings: Table III
Method in brief: (§1)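 Compounds are serially diluted in broth and tested for microbial susceptibility by the standard microdilution procedure. Bacteria are handled per approved standard M7-A5 and yeasts per approved standard M27-A.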

[3] = test system: Stenotrophomonas maltophilia; assay: reference broth microdilution susceptibility assay; assay type: cell-based; settings: Table III
Method in brief: as §1

[4] = test system: Enterobacter cloacae; assay: reference broth microdilution susceptibility assay; assay type: cell-based; settings: Table III
Method in brief: as §1

[5] = test system: Staphylococcus aureus; assay: reference broth microdilution susceptibility assay; assay type: cell-based; settings: Table III
Method in brief: as §1

[6] = test system: Candida albicans; assay: reference broth microdilution susceptibility assay; assay type: cell-based; settings: Table III
Method in brief: (§2)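 Read-out is growth susceptibility in the NCCLS reference broth microdilution format, under M27-A for the two yeasts and under M7-A5 for the two bacteria.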

[7] = test system: Neisseria gonorrhoeae; assay: reference broth microdilution susceptibility assay; assay type: cell-based; settings: Table III
Method in brief: as §1

[8] = test system: Escherichia coli; assay: reference broth microdilution susceptibility assay; assay type: cell-based; settings: Table III
Method in brief: as §2

[9] = test system: Streptococcus pneumoniae; assay: reference broth microdilution susceptibility assay; assay type: cell-based; settings: Table III
Method in brief: as §1

[10] = test system: Cryptococcus neoformans; assay: reference broth microdilution susceptibility assay; assay type: cell-based; settings: Table III
Method in brief: as §2

[11] = test system: Micrococcus luteus; assay: reference broth microdilution susceptibility assay; assay type: cell-based; settings: Table III
Method in brief: as §2

[12] = test system: tubulin; assay: inhibition of [3H]colchicine binding to tubulin; settings: 1.0 μM tubulin, 5.0 μM [3H]colchicine, inhibitor at 1.0 μM, 10 minutes at 37° C.
Method: Tubulin polymerization was evaluated by turbidimetry at 350 nm using Beckman DU7400/7500 spectrophotometers as described in detail elsewhere. […] Varying concentrations of drug were preincubated with 10 μM:M ([…]) purified tubulin (See Hamel, E., et al., Separation of Active Tubulin and Microtubule-associated Proteins by Ultracentrifiigation and Isolation of a Component Causing the Formation of Microtubule Bundles, Biochemistry 1984, 23, 4173-4184). Samples were chilled on ice, GTP (0.4 mM) was added, and polymerization was followed at 30° C. The parameter measured was extent of the reaction after 20 minutes. Coichicine binding was measured as described in detail previously. Reaction mixtures contained 1.0 μM :M tubulin, 5.0:M, [^3H]colchicine (from Dupont), and inhibitor at 1.0 μM:M. Incubation was for 10 minutes at 37° C.

## COc1ccc(/C=C\c2cc(I)c(OC)c(OC)c2)cc1O [Compound 14a, 3-Iodo-4,4′,5-trimethoxy-3′-hydroxy-z-stilbene]
[1]; 0.001 μg/ml
  Number of junctions: +
[1]; 0.01 μg/ml
  Number of junctions: −
[2]
  Range of minimum inhibitory concentration, Enterococcus faecalis: * (no inhibition at 64 μg/ml)
[3]
  Range of minimum inhibitory concentration, Stenotrophomonas maltophilia: * (no inhibition at 64 μg/ml)
[4]
  Range of minimum inhibitory concentration, Enterobacter cloacae: * (no inhibition at 64 μg/ml)
[5]
  Range of minimum inhibitory concentration, Staphylococcus aureus: * (no inhibition at 64 μg/ml)
[6]
  Range of minimum inhibitory concentration, Candida albicans: * (no inhibition at 64 μg/ml)
[7]
  Range of minimum inhibitory concentration, Neisseria gonorrhoeae: 16 to 32 µg/mL
[8]
  Range of minimum inhibitory concentration, Escherichia coli: * (no inhibition at 64 μg/ml)
[9]
  Range of minimum inhibitory concentration, Streptococcus pneumoniae: 64 µg/mL
[10]
  Range of minimum inhibitory concentration, Cryptococcus neoformans: 32 to 64 µg/mL
[11]
  Range of minimum inhibitory concentration, Micrococcus luteus: 16 to 32 µg/mL
[12]
  Inhibition of colchicine binding % inhibition ± S.D.: 84 ± 7%

Reference: patent US20070167412A1, “HALOCOMBSTATINS AND METHODS OF SYNTHESIS THEREOF” (ARIZONA BOARD OF REGENTS, priority 2003, published 2007)
